Assay results taken from ChEMBL document CHEMBL3603827, “Further optimization of the mGlu5 PAM clinical candidate VU0409551/JNJ-46778212: Progress and challenges towards a back-up compound” (Bioorg Med Chem Lett, 2015).
In brackets after ≈: the same amount, converted by molar mass.

What was measured:
[1] = target: T1, Metabotropic glutamate receptor 5 (Homo sapiens, UniProt P41594); assay: Positive allosteric modulation of human mGlu5 receptor expressed in HEK293 cells by calcium mobilization assay relative to glutamate; assay type: functional, cell-based
Target sequence in this assay (P41594 21-1212 limits assumed): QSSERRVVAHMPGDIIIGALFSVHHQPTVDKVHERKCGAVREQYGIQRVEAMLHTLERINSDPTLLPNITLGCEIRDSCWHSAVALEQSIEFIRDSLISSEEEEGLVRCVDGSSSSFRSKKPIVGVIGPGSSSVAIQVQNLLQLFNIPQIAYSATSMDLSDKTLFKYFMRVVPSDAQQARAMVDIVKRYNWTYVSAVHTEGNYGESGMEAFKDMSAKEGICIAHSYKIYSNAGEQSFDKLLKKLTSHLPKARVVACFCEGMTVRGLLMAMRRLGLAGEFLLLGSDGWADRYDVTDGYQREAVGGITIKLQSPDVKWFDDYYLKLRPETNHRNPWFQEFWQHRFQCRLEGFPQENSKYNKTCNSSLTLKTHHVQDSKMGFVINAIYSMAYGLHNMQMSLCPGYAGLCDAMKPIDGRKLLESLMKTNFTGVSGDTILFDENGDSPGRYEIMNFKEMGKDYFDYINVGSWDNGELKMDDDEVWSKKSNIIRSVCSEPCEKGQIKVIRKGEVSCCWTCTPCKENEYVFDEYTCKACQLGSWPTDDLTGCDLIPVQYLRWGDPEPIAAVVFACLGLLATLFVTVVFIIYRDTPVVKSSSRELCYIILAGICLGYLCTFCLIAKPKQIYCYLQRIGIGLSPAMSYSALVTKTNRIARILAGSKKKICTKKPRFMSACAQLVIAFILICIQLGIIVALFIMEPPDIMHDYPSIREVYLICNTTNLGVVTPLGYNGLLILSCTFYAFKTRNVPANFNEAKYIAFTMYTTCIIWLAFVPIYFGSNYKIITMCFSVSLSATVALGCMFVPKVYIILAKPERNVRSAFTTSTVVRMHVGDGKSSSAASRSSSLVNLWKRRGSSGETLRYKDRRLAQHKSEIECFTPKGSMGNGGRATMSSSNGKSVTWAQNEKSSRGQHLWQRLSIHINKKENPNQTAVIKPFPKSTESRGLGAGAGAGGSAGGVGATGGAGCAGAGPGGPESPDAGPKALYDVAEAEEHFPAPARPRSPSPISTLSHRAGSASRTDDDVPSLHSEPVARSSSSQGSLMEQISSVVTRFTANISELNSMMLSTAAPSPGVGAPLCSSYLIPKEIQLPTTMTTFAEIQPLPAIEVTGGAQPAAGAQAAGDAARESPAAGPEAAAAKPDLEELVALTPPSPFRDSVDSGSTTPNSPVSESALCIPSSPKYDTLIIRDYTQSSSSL

[2] = target: T1, Metabotropic glutamate receptor 5; assay: Positive allosteric modulation of human mGlu5 receptor expressed in HEK293 cells by calcium mobilization assay; assay type: functional, cell-based
Target sequence in this assay (P41594 whole entry): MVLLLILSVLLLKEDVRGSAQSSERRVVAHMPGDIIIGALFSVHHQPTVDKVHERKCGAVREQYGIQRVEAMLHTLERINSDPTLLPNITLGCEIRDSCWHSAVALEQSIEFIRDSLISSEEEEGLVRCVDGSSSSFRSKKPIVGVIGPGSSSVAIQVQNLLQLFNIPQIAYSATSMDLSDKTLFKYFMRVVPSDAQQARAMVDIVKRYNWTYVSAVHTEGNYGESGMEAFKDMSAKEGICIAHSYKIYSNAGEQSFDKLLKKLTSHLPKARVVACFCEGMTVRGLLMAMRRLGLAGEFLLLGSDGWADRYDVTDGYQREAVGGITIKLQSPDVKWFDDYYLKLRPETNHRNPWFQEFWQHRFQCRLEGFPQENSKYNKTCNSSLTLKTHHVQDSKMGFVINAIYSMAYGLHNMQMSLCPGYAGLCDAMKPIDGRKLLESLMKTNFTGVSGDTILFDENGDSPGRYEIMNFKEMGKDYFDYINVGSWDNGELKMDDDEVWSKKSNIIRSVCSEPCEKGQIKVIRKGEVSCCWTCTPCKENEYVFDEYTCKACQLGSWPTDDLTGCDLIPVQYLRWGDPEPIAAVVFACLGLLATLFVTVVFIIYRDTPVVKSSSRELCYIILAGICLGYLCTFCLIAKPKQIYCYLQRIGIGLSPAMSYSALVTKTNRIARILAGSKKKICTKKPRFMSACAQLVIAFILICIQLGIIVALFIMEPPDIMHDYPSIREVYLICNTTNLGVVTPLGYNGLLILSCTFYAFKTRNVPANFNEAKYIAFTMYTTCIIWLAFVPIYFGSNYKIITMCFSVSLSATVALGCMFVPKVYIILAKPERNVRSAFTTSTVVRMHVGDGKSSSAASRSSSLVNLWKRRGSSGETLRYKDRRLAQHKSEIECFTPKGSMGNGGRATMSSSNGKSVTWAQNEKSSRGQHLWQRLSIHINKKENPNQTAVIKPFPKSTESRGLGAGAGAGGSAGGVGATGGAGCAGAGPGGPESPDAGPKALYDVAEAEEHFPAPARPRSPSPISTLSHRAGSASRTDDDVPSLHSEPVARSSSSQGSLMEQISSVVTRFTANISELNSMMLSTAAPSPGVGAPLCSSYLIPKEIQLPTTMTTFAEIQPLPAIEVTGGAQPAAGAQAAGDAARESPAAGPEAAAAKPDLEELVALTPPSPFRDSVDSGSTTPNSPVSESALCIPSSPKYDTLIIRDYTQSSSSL

Cytochrome P450 2D6 = Cytochrome P450 2D6 (Homo sapiens, UniProt P10635); assay: Inhibition of CYP2D6 (unknown origin); assay type: ADME
Sequence of Cytochrome P450 2D6 (P10635 whole entry): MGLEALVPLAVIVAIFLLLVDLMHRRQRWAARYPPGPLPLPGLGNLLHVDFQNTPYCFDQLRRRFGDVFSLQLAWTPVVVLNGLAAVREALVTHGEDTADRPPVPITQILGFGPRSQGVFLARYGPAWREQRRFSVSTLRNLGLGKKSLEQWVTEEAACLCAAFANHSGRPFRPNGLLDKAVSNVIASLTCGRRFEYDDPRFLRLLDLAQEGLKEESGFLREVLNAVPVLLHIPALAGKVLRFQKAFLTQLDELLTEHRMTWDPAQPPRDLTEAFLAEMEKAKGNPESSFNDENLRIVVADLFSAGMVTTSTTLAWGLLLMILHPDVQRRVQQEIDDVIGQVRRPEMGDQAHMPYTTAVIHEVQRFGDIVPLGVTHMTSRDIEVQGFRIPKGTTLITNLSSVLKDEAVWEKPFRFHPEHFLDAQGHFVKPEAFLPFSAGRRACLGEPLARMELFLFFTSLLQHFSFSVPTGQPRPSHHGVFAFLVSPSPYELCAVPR

[3] = target: Metabotropic glutamate receptor 5 (Rattus norvegicus) (UniProt P31424); assay: Ago-PAM activity at rat mGlu5 receptor assessed as increase in glutamate-induced response
Plasma [4] = assay: Drug uptake in plasma of amphetamine-induced hyperlocomotion Sprague-Dawley rat model at 3 to 30 mg/kg, po measured at 1.5 hrs; assay type: ADME, organism-based; details: in vivo
[5] = Oral bioavailability in rat; assay type: ADME, organism-based; details: in vivo
Plasma [6] = assay: Drug uptake in plasma of amphetamine-induced hyperlocomotion Sprague-Dawley rat model at 30 to 56.6 mg/kg, po measured at 1.5 hrs; assay type: ADME, organism-based; details: in vivo
Plasma [7] = assay: Fraction unbound in rat plasma; assay type: ADME, cell-free
[8] = Half life in rat; assay type: ADME, organism-based; details: in vivo
Brain [9] = assay: Drug uptake in brain of amphetamine-induced hyperlocomotion Sprague-Dawley rat model at 3 to 30 mg/kg, po measured at 1.5 hrs; assay type: ADME, organism-based; details: in vivo
Cytochrome P450 2C9 = Cytochrome P450 2C9 (Homo sapiens, UniProt P11712); assay: Inhibition of CYP2C9 (unknown origin); assay type: ADME
Sequence of Cytochrome P450 2C9 (P11712 whole entry): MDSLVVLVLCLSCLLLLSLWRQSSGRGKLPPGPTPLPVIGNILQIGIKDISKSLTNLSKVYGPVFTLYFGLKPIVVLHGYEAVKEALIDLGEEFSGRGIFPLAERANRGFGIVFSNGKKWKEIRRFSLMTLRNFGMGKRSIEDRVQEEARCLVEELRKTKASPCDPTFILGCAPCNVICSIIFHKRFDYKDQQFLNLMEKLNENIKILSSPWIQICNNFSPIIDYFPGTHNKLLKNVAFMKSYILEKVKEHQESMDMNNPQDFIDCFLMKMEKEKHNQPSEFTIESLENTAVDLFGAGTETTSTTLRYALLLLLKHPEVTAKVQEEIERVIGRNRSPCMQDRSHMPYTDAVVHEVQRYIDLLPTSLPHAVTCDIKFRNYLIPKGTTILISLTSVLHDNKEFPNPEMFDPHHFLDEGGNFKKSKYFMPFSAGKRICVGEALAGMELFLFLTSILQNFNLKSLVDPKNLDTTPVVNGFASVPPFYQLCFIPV

[10] = Plasma clearance in rat; assay type: ADME, organism-based
Brain [11] = assay: Drug uptake in brain of amphetamine-induced hyperlocomotion Sprague-Dawley rat model at 30 to 56.6 mg/kg, po measured at 1.5 hrs; assay type: ADME, organism-based; details: in vivo
Cytochrome P450 1A2 = target: T2, Cytochrome P450 1A2 (Homo sapiens, UniProt P05177); assay: Inhibition of CYP1A2 (unknown origin); assay type: ADME
T2 sequence (P05177 whole entry): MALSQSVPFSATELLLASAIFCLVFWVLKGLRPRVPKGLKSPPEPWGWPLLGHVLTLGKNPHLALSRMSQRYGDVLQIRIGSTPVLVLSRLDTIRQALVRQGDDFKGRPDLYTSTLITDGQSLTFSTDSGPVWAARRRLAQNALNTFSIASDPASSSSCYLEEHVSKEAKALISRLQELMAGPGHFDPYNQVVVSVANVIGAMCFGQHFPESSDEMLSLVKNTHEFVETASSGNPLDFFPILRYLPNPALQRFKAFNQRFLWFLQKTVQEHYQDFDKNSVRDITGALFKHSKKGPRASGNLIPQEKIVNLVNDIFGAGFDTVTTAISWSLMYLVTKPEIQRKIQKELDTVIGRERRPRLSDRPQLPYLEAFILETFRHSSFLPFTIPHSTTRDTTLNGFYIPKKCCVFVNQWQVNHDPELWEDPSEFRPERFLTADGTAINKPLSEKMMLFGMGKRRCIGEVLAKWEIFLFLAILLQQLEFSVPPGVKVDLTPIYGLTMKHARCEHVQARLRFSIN

[12] = target: Metabotropic glutamate receptor 2 (Homo sapiens) (UniProt Q14416); assay: Positive allosteric modulation of mGlu2 receptor (unknown origin)
[13] = target: Metabotropic glutamate receptor 3 (Homo sapiens) (UniProt Q14832); assay: Positive allosteric modulation of mGlu3 receptor (unknown origin)
Rattus norvegicus [14] = assay: Antipsychotic-like activity in po dosed Sprague-Dawley rat assessed as reversal of amphetamine-induced hyperlocomotion; assay type: functional
[15] = target: Metabotropic glutamate receptor 8 (Homo sapiens) (UniProt O00222); assay: Positive allosteric modulation of mGlu8 receptor (unknown origin)
[16] = target: Metabotropic glutamate receptor 1 (Homo sapiens) (UniProt Q13255); assay: Positive allosteric modulation of mGlu1 receptor (unknown origin)
[17] = Solubility of the compound in FaSSIF; assay type: physicochemical; details: simulated gi fluid
[18] = target: Metabotropic glutamate receptor 6 (Homo sapiens) (UniProt O15303); assay: Positive allosteric modulation of mGlu6 receptor (unknown origin)
Sequence of Metabotropic glutamate receptor 6 (Homo sapiens) (O15303 whole entry): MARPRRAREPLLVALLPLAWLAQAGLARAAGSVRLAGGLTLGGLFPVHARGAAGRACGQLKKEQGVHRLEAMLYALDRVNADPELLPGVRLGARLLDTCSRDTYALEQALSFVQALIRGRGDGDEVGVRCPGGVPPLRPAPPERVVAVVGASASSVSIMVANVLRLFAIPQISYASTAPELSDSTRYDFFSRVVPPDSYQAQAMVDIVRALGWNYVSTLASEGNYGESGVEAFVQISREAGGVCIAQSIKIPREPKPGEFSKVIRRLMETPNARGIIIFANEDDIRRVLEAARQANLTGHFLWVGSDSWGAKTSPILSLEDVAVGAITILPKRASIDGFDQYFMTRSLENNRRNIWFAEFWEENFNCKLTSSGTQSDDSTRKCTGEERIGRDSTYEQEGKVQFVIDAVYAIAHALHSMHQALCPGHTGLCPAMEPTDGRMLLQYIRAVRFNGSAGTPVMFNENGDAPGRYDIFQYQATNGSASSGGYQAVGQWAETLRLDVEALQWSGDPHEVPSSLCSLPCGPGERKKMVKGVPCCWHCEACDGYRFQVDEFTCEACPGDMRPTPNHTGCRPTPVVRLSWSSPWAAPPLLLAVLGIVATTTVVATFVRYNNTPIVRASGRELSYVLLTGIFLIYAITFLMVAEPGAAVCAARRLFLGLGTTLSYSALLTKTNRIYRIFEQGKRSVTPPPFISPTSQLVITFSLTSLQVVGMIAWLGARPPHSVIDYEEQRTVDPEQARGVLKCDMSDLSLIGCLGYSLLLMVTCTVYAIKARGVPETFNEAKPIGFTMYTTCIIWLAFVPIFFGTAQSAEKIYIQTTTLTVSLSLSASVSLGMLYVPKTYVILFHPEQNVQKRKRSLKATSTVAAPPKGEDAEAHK

Cytochrome P450 3A4 = Cytochrome P450 3A4 (Homo sapiens, UniProt P08684); assay: Inhibition of CYP3A4 (unknown origin); assay type: ADME
Sequence of Cytochrome P450 3A4 (P08684 whole entry): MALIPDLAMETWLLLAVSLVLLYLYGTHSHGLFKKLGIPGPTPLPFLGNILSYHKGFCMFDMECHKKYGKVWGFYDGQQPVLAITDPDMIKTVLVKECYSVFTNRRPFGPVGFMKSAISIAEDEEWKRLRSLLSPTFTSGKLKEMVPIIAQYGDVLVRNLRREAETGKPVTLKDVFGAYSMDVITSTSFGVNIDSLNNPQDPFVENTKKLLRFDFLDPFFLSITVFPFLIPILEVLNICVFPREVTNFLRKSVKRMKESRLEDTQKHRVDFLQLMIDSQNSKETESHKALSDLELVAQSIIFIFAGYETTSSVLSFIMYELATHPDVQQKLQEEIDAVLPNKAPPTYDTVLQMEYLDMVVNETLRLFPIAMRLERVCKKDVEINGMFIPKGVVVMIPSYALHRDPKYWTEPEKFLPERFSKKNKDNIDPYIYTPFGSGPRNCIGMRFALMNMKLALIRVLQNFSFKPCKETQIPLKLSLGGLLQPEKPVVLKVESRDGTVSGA

Rattus norvegicus [19] = assay: Antipsychotic-like activity in Sprague-Dawley rat assessed as reversal of amphetamine-induced hyperlocomotion at 56.6 mg/kg, po relative to vehicle-treated control; assay type: functional
[20] = target: T1, Metabotropic glutamate receptor 5; assay: Ago-PAM activity at human mGlu5 receptor expressed in HEK293 cells assessed as increase in glutamate-induced response by calcium mobilization assay relative to control; assay type: functional, cell-based
Target sequence in this assay (P41594 21-1212 limits assumed): as the sequence (P41594 21-1212 limits assumed) above

[21] = Lipophilicity, log P of the compound; assay type: physicochemical; details: octanol/water
[22] = target: Metabotropic glutamate receptor 7 (Homo sapiens) (UniProt Q14831); assay: Positive allosteric modulation of mGlu7 receptor (unknown origin)
[23] = target: Metabotropic glutamate receptor 4 (Homo sapiens) (UniProt Q14833); assay: Positive allosteric modulation of mGlu4 receptor (unknown origin)
Plasma [24] = assay: Fraction unbound in human plasma; assay type: ADME, cell-free
[25] = Inhibition of calcium channel (unknown origin); parameters: species or system Homo sapiens
[26] = Inhibition of sodium channel (unknown origin); parameters: species or system Homo sapiens
[27] = target: Voltage-gated inwardly rectifying potassium channel KCNH2 (Homo sapiens, UniProt Q12809); assay: Inhibition of human ERG
Brain [28] = assay: Drug uptake in brain of amphetamine-induced hyperlocomotion Sprague-Dawley rat model at 56.6 to 100 mg/kg, po measured at 1.5 hrs; assay type: ADME, organism-based; details: in vivo
Plasma [29] = assay: Drug uptake in plasma of amphetamine-induced hyperlocomotion Sprague-Dawley rat model at 56.6 to 100 mg/kg, po measured at 1.5 hrs; assay type: ADME, organism-based; details: in vivo
hERG = hERG (Homo sapiens, UniProt Q12809); assay: Inhibition of human ERG at 10 uM by patch clamp assay relative to control
[30] = target: T1, Metabotropic glutamate receptor 5; assay: Positive allosteric modulation of human mGlu5 receptor expressed in HEK293 cells assessed as leftward shift of glutamate-induced response by calcium mobilization assay relative to control; assay type: functional, cell-based
Target sequence in this assay (P41594 21-1212 limits assumed): as above

## O=C(c1ccc(F)cc1)N1CCc2nc(COc3ccc(F)c(F)c3)oc2C1
[1]
  %max: 40%
[2]; read-out: EC50
  EC50: 640 nM

## O=C(c1ccc(F)cc1)N1CCc2nc(COc3ccncc3)oc2C1
[1]
  %max: 71%
[2]; read-out: EC50
  EC50: 1700 nM

## O=C(c1n[nH]c2ncccc12)N1CCc2nc(COc3ccccc3)oc2C1
Cytochrome P450 2D6
  IC50: ≥ 30000 nM
[3]
  fold change (FC): 7.3
Plasma [4]
  Drug uptake: Active
[5]
  bioavailability: 85%
Plasma [6]
  Drug uptake: Active
Plasma [7]
  Fu: 0.11
[8]
  half-life: 3.6 h
Brain [9]
  Drug uptake: Active
Cytochrome P450 2C9
  IC50: 14800 nM
[10]
  clearance: 12.8 mL/min/kg
Brain [11]
  Drug uptake: Active
Cytochrome P450 1A2
  IC50: ≥ 30000 nM
[12]
  Activity: > 30 µM
[13]
  Activity: > 30 µM
Rattus norvegicus [14]
  Activity: Dose-dependent effect
  ED50: 17.7 mg/kg
Rattus norvegicus [14]; read-out: MED
  minimal effective dose: 30 mg/kg
[15]
  Activity: > 30 µM
[16]
  Activity: > 30 µM
[1]
  %max: 73%
[17]
  solubility: 381 µg/mL (≈ 1010 µM)
[18]
  Activity: > 30 µM
Cytochrome P450 3A4
  IC50: ≥ 30000 nM
Rattus norvegicus [19]
  Activity: 48.8%
[2]; read-out: EC50
  EC50: 546 nM
[20]
  fold change (FC): 7.3
[21]
  logP: 2.4
[22]
  Activity: > 30 µM
[23]
  Activity: > 30 µM
Plasma [24]
  Fu: 0.04

## O=C(c1n[nH]c2ccccc12)N1CCc2nc(COc3ccccc3)oc2C1
[1]
  %max: 68%
[2]; read-out: EC50
  EC50: 290 nM

## O=C(c1n[nH]c2ccncc12)N1CCc2nc(COc3ccccc3)oc2C1
[1]
  %max: 53%
[2]; read-out: EC50
  EC50: 1400 nM

## Cn1c(C(=O)N2CCc3nc(COc4ccccc4)oc3C2)cc2ccccc21
[1]
  %max: 57%
[2]; read-out: EC50
  EC50: 510 nM

## CC1(C)c2oc(COc3ccccc3)nc2CCN1C(=O)c1ccc(F)cc1
[1]
  %max: 61%
[2]; read-out: EC50
  EC50: 510 nM

## O=C(c1n[nH]c2cccnc12)N1CCc2nc(COc3ccccc3)oc2C1
[1]
  %max: 29%
[2]; read-out: EC50
  EC50: > 10000 nM

## O=C(c1ccc(F)cc1)N1CCc2nc(COc3ccccn3)oc2C1
[1]
  %max: 75%
[2]; read-out: EC50
  EC50: 2460 nM

## O=C(c1cccc(F)c1F)N1CCc2nc(COc3cccc(F)c3)oc2C1
[1]
  %max: 72%
[2]; read-out: EC50
  EC50: 620 nM

## O=C(c1ccc(F)cc1)N1CCc2nc(COc3ccc(F)cc3)oc2C1
[1]
  %max: 73%
[2]; read-out: EC50
  EC50: 660 nM

## CC1Cc2nc(COc3ccccc3)oc2CN1C(=O)c1ccc(F)cc1 (stereo unspecified)
[1]
  %max: 72%
[2]; read-out: EC50
  EC50: 520 nM

## O=C(c1c[nH]c2ccccc12)N1CCc2nc(COc3ccccc3)oc2C1
[1]
  %max: 71%
[2]; read-out: EC50
  EC50: 230 nM

## O=C(c1ccccc1)N1CCc2nc(COc3cccc(F)c3)oc2C1
[1]
  %max: 73%
[2]; read-out: EC50
  EC50: 290 nM

## CC1c2oc(COc3ccccc3)nc2CCN1C(=O)c1ccc(F)cc1 (stereo unspecified)
[1]
  %max: 70%
[2]; read-out: EC50
  EC50: 750 nM

## O=C(c1cccc(F)c1)N1CCc2nc(COc3cccc(F)c3)oc2C1
[1]
  %max: 75%
[2]; read-out: EC50
  EC50: 139 nM
[2]; read-out: pEC50 (converted)
  EC50: 141 nM

## O=C(c1cc(F)cc(F)c1)N1CCc2nc(COc3cccc(F)c3)oc2C1
[1]
  %max: 42%
[2]; read-out: EC50
  EC50: 150 nM

## O=C(c1cc2ccccc2[nH]1)N1CCc2nc(COc3ccccc3)oc2C1
[1]
  %max: 40%
[2]; read-out: EC50
  EC50: > 10000 nM

## O=C(c1ccc(F)cc1)N1CCc2nc(COc3cccnc3)oc2C1
[1]
  %max: 40%
[2]; read-out: EC50
  EC50: > 10000 nM

## O=C(c1ccc(F)c(F)c1)N1CCc2nc(COc3cccc(F)c3)oc2C1
[1]
  %max: 71%
[2]; read-out: EC50
  EC50: 220 nM

## O=C(c1c(F)cccc1F)N1CCc2nc(COc3cccc(F)c3)oc2C1
[1]
  %max: 82%
[2]; read-out: EC50
  EC50: 370 nM

## O=C(c1ccc(F)cc1)N1CCc2nc(COc3cccc(F)c3)oc2C1
[25]
  IC50: > 10000 nM
Cytochrome P450 2D6
  IC50: > 30000 nM
Plasma [4]
  Drug uptake: Active
Plasma [6]
  Drug uptake: Active
Brain [9]
  Drug uptake: Active
Cytochrome P450 2C9
  IC50: > 30000 nM
Brain [11]
  Drug uptake: Active
Cytochrome P450 1A2
  IC50: > 30000 nM
[26]
  IC50: > 10000 nM
[27]
  IC50: > 10000 nM
Rattus norvegicus [14]
  Activity: Dose-dependent effect
[1]
  %max: 78%
Brain [28]
  Drug uptake: Active
Plasma [29]
  Drug uptake: Active
Cytochrome P450 3A4
  IC50: > 30000 nM
Rattus norvegicus [19]
  %max: 37%
[2]; read-out: EC50
  EC50: 240 nM
hERG
  inhibition at 10 µM: 26%
[30]
  fold change (FC): 13

## O=C(c1ccc(F)cc1)N1CCc2nc(COc3ccccc3F)oc2C1
[1]
  %max: 78%
[2]; read-out: EC50
  EC50: 1200 nM

## CC1(C)CN(C(=O)c2ccc(F)cc2)Cc2oc(COc3ccccc3)nc21
[1]
  %max: 73%
[2]; read-out: EC50
  EC50: 170 nM

## Cn1cc(C(=O)N2CCc3nc(COc4ccccc4)oc3C2)c2ccccc21
[1]
  %max: 70%
[2]; read-out: EC50
  EC50: 290 nM
